Test results from PubChem BioAssay AID2060893 (Molecular Pharmacology Branch, DTP, NCI, 2025).

Tested on: K86415-001-R-J1-PDC complex spheroids, viability
Assay: Anticancer human tumor K86415-001-R-J1-PDC patient-derived lung adenocarcinoma cell line growth inhibition [RAS]
Details: for IC50: curve of first compound; for viability, T/C: stronger effect = lower value
Method in brief: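 Multi-cell-type spheroids: tumor cells plus HUVEC endothelial cells and mesenchymal stem cells. RAS-pathway inhibitors were combined with targeted agents, each dosed in half-log steps down from clinical Cmax, or from 10 microM when Cmax was unknown.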

[1] = second compound 0.00316 µM, first compound 0.0316 µM
[2] = second compound 0.00316 µM, first compound 0.1 µM
[3] = second compound 0.00316 µM, first compound 0.316 µM
[4] = second compound 0.00316 µM, first compound 1 µM
[5] = second compound 0.00316 µM, first compound 3.16 µM
[6] = second compound 0.00316 µM, first compound 10 µM
[7] = second compound 0.01 µM, first compound 0.0316 µM
[8] = second compound 0.01 µM, first compound 0.1 µM
[9] = second compound 0.01 µM, first compound 0.316 µM
[10] = second compound 0.01 µM, first compound 1 µM
[11] = second compound 0.01 µM, first compound 3.16 µM
[12] = second compound 0.01 µM, first compound 10 µM
[13] = second compound 0.0316 µM, first compound 0.0316 µM
[14] = second compound 0.0316 µM, first compound 0.1 µM
[15] = second compound 0.0316 µM, first compound 0.316 µM
[16] = second compound 0.0316 µM, first compound 1 µM
[17] = second compound 0.0316 µM, first compound 3.16 µM
[18] = second compound 0.0316 µM, first compound 10 µM
[19] = second compound 0.1 µM, first compound 0.0316 µM
[20] = second compound 0.1 µM, first compound 0.1 µM
[21] = second compound 0.1 µM, first compound 0.316 µM
[22] = second compound 0.1 µM, first compound 1 µM
[23] = second compound 0.1 µM, first compound 3.16 µM
[24] = second compound 0.1 µM, first compound 10 µM
[25] = second compound 0.316 µM, first compound 0.0316 µM
[26] = second compound 0.316 µM, first compound 0.1 µM
[27] = second compound 0.316 µM, first compound 0.316 µM
[28] = second compound 0.316 µM, first compound 1 µM
[29] = second compound 0.316 µM, first compound 3.16 µM
[30] = second compound 0.316 µM, first compound 10 µM
[31] = second compound 1 µM, first compound 0.0316 µM
[32] = second compound 1 µM, first compound 0.1 µM
[33] = second compound 1 µM, first compound 0.316 µM
[34] = second compound 1 µM, first compound 1 µM
[35] = second compound 1 µM, first compound 3.16 µM
[36] = second compound 1 µM, first compound 10 µM
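Note: spheroids exposed to agents for seven days before readout.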

**Q.** Which results are given for `CC(=O)OC12COC1CC(O)C1(C)C(=O)C(O)C3=C(C)C(OC(=O)C(O)C(NC(=O)OC(C)(C)C)c4ccccc4)CC(O)(C(OC(=O)c4ccccc4)C21)C3(C)C` (centres undefined) + C=CC(=O)N1CCN(c2nc(OCC3CCCN3C)nc3c(F)c(-c4nc(N)cc(C)c4C(F)(F)F)c(Cl)cc23)C(C)C1?
**A.** IC50 (second compound 0.00316 µM): < 31.6 nM; IC50 (second compound 0.01 µM): < 31.6 nM; IC50 (second compound 0.0316 µM): < 31.6 nM; IC50 (second compound 0.1 µM): < 31.6 nM; IC50 (second compound 0.316 µM): < 31.6 nM; IC50 (second compound 1 µM): < 31.6 nM; viability, T/C [1]: 15.6%; viability, T/C [2]: 15.6%; viability, T/C [3]: 16.5%; viability, T/C [4]: 15.9%; viability, T/C [5]: 15.5%; viability, T/C [6]: 15.2%; viability, T/C [7]: 13.9%; viability, T/C [8]: 14.1%; viability, T/C [9]: 12.5%; viability, T/C [10]: 13.2%; viability, T/C [11]: 10.8%; viability, T/C [12]: 9.16%; viability, T/C [13]: 11.1%; viability, T/C [14]: 10.8%; viability, T/C [15]: 9.94%; viability, T/C [16]: 9.79%; viability, T/C [17]: 10.3%; viability, T/C [18]: 8.13%; viability, T/C [19]: 9.79%; viability, T/C [20]: 11.2%; viability, T/C [21]: 9.84%; viability, T/C [22]: 9.57%; viability, T/C [23]: 11.5%; viability, T/C [24]: 9.04%; viability, T/C [25]: 7.89%; viability, T/C [26]: 9.45%; viability, T/C [27]: 11.5%; viability, T/C [28]: 9.36%; viability, T/C [29]: 10.3%; viability, T/C [30]: 8.4%; viability, T/C [31]: 8.13%; viability, T/C [32]: 10.6%; viability, T/C [33]: 12.8%; viability, T/C [34]: 9.39%; viability, T/C [35]: 11.2%; viability, T/C [36]: 10.5%

**Q.** `CCC(CC)c1cc(NC2CCC(N)C2)n2nccc2n1` (centres undefined) + C=CC(=O)N1CCN(c2nc(OCC3CCCN3C)nc3c(F)c(-c4nc(N)cc(C)c4C(F)(F)F)c(Cl)cc23)C(C)C1 was tested. Which IC50 (second compound 0.00316 µM) did it give?
**A.** < 31.6 nM

**Q.** And the IC50 (second compound 0.01 µM)?
**A.** < 31.6 nM

**Q.** And the IC50 (second compound 0.0316 µM)?
**A.** < 31.6 nM

**Q.** What about the IC50 (second compound 0.1 µM) of the same compound?
**A.** < 31.6 nM

**Q.** And the IC50 (second compound 0.316 µM)?
**A.** < 31.6 nM

**Q.** What about the IC50 (second compound 1 µM) of the same compound?
**A.** < 31.6 nM

**Q.** And the viability, T/C [1]?
**A.** 21.7%

**Q.** And the viability, T/C [2]?
**A.** 20.9%

**Q.** What about the viability, T/C [3] of the same compound?
**A.** 26.4%

**Q.** And the viability, T/C [4]?
**A.** 45.6%

**Q.** What about the viability, T/C [5] of the same compound?
**A.** 2.88%

**Q.** And the viability, T/C [6]?
**A.** 3.26%

**Q.** What about the viability, T/C [7] of the same compound?
**A.** 13.3%

**Q.** And the viability, T/C [8]?
**A.** 12.7%

**Q.** What about the viability, T/C [9] of the same compound?
**A.** 16.9%

**Q.** And the viability, T/C [10]?
**A.** 23.3%

**Q.** And the viability, T/C [11]?
**A.** 2.98%

**Q.** What about the viability, T/C [12] of the same compound?
**A.** 2.44%

**Q.** What about the viability, T/C [13] of the same compound?
**A.** 10.7%

**Q.** What about the viability, T/C [14] of the same compound?
**A.** 13.9%

**Q.** And the viability, T/C [15]?
**A.** 11.7%

**Q.** What about the viability, T/C [16] of the same compound?
**A.** 15.9%

**Q.** What about the viability, T/C [17] of the same compound?
**A.** 3.17%

**Q.** And the viability, T/C [18]?
**A.** 2.7%

**Q.** What about the viability, T/C [19] of the same compound?
**A.** 10.3%

**Q.** What about the viability, T/C [20] of the same compound?
**A.** 12%

**Q.** What about the viability, T/C [21] of the same compound?
**A.** 12.8%

**Q.** And the viability, T/C [22]?
**A.** 13.7%

**Q.** What about the viability, T/C [23] of the same compound?
**A.** 3.12%

**Q.** What about the viability, T/C [24] of the same compound?
**A.** 2.45%

**Q.** And the viability, T/C [25]?
**A.** 11.8%

**Q.** And the viability, T/C [26]?
**A.** 14%

**Q.** And the viability, T/C [27]?
**A.** 12%

**Q.** And the viability, T/C [28]?
**A.** 17.7%

**Q.** What about the viability, T/C [29] of the same compound?
**A.** 2.62%

**Q.** What about the viability, T/C [30] of the same compound?
**A.** 3.41%

**Q.** What about the viability, T/C [31] of the same compound?
**A.** 10.5%

**Q.** What about the viability, T/C [32] of the same compound?
**A.** 13.1%

**Q.** And the viability, T/C [33]?
**A.** 15.1%

**Q.** What about the viability, T/C [34] of the same compound?
**A.** 14.7%

**Q.** What about the viability, T/C [35] of the same compound?
**A.** 3.95%

**Q.** And the viability, T/C [36]?
**A.** 4.47%
